From paper PMC6368365, “Didehydro-Cortistatin A Inhibits HIV-1 by Specifically Binding to the Unstructured Basic Region of Tat” (mBio, 2019)

Experiments:
FLAG-tagged Rev = biological target: T1, FLAG-tagged Rev (Human immunodeficiency virus type 1 group M subtype B, UniProt P04618); assay: Confocal immunofluorescence of FLAG-Rev subcellular localization; assay type: cell-based, HIV-1; details: 100 nM dCA, HeLa-CD4-LTR-Luc cells
T1 construct: expressed in transfected cells; host or cells: HeLa-CD4-LTR-Luc
Description: If dCA were to bind the basic domain of Tat in its disordered form, then one would predict it might also bind to other basic peptide sequences and block their functions. The two well-known proteins that share a similar basic domain with Tat are HIV-1 Rev protein and the cellular protein Hexim-1 (Fig. 3A). As such, we investigated whether dCA could inhibit these similar basic domain functions. The basic domain of Rev is responsible for its nuclear localization ([31]); therefore, we assessed whether dCA could impact the subcellular localization of Rev (Fig. 3B) as previously shown for Tat ([10]). We transfected HeLa-CD4-LTR-Luc cells with a plasmid expressing FLAG-tagged Rev and assessed Rev localization in the presence of 100 nM dCA. […] Twenty-four hours later, cells were collected, and total, nuclear, and cytoplasmic mRNAs were extracted, reverse transcribed, and quantified by quantitative real-time PCR (qRT-PCR).
(A) Sequence of the basic domains of HIV Tat HXB3, HIV Rev Bru and intracellular Hexim-1. […] (C) Quantification of the nucleolar fluorescence of panel B using ImageJ. […] Total, nuclear, and cytoplasmic mRNAs were extracted, and viral messages were determined by qRT-PCR. […] (G) Quantification of nuclear fluorescence of panel F using ImageJ. […] Statistical significance was determined using one-way ANOVA with post hoc Tukey’s test. ns, not significant; ***, P < 0.0001; **, P < 0.001. […]

HIV-1 TAR = assay: ITC of dCA binding to TAR; details: 25°C
Description: FIG 6 dCA binding to Tat disrupts Tat-TAR interaction. (A) EMSA of full-length Tat with TAR in the presence of dCA. Raltegravir (Ralt.) and deleted bulge TAR (ΔTAR) were used as negative controls. Data are representative of n = 3 independent experiments. (B) EMSA of Tat’s basic domain with TAR in the presence of increasing concentrations of dCA to Tat’s basic peptide. Pep B is a peptide encompassing the basic domain of HIV Tat (^45ISYGRKKRRQRRRAP^59). Pep C (^69LSKQPASQPRGDPTG^83) and unlabeled or cold TAR (TARc) were used as negative controls. Neomycin, which binds to Tat and TAR, was used as a positive control. Ratios of compounds (or TARc) concentrations to peptide are shown. Data are representative of n = 3 independent experiments. […] Shown are ITC results from binding of dCA (left) or Tat peptide (right) to TAR at 25°C. […] Luciferase activity was determined relative to protein concentration (Bradford assay) (Fig. S9A). […] Statistical significance was determined using one-way ANOVA with post hoc Tukey’s test with 3 technical replicates. ns, not significant; ***, P < 0.0001. […]
Isothermal titration calorimetry. […] Each injection generated a heat burst curve (microcalories/second vs. seconds) and the area under each curve was determined by integration [using the origin version 7.0 software (Microcal, Inc.; Northampton, MA)] to obtain the measure of the heat associated with that injection.

T1 sequence (P04618 whole entry, looked up): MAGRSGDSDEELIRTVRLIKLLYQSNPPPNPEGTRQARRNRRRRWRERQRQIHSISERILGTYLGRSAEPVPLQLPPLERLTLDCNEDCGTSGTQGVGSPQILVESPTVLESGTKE

Which results are given for CN(C)C1CC23CCC4(O2)C(=CCC2(C)C(c5ccc6ccncc6c5)=CCC24)C=C3C(O)C1O (centres unmarked) [dCA, didehydro-cortistatin A]?
subcellular localization of Rev (FLAG-tagged Rev): localization of Rev was left unchanged; binding to TAR (ITC) (HIV-1 TAR): does not bind to TAR
